Data reported in patent publication US20260085062A1, “NOVEL COMPOUNDS AS CK2 INHIBITORS” (Cambridge Enterprise Limited, priority 2022, published 2026).

Key:
CK2α = target: T1, CK2α (Homo sapiens, UniProt P68400); test: Biochemical assay for inhibitors of CK2α kinase activity (ADP-Glo); details: 0.2 nM CK2α, 50 μM peptide substrate, 15 μM ATP, read-out: Assay 1: CK2α Enzyme IC50
T1 construct: CK2α (residues 2-329) was produced in Escherichia coli BL21 (DE3) for kinase activity screening; His6 (N, cleaved yes); made in house; host or cells: Escherichia coli BL21 (DE3)
T1 sequence (P68400 2-329): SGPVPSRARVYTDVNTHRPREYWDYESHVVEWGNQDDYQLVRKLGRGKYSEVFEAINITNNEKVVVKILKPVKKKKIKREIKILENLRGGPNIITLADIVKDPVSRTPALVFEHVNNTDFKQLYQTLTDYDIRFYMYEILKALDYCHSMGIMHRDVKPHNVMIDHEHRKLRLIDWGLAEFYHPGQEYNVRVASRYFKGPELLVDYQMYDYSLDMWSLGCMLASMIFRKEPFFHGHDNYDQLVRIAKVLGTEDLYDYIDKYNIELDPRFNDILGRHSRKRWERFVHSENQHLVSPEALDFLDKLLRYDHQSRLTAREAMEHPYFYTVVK

CLK2 = target: T2, CLK2 (Homo sapiens, UniProt P49760); test: Biochemical assay for inhibitors of CLK2 kinase activity (ADP-Glo); details: 20 nM CLK2, 50 μM peptide substrate, 100 μM ATP, read-out: Assay 2: CLK2 Enzyme IC50
T2 construct: purchased Carna Biosciences 04-127

intracellular CK2α = target: T3, intracellular CK2α (Homo sapiens, UniProt P19784); test: Cell-based NanoBRET assay for inhibitor binding to intracellular CK2α; details: HCT116 cells transiently transfected with CSNK2A2-NanoLuc fusion vector; Tracer K-5; 2 h; read-out: Assay 3: NanoBRET ™ assay for binding to intracellular CK2α
T3 construct: host or cells: HCT116 (ATCC CCL-247)
Summary of the method: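 Living cells expressing NanoLuc-CK2α fusion were given a fixed tracer concentration, and compounds competitively displaced the reversibly bound tracer. Donor (450 nm) and acceptor (610 or 630 nm) emissions were read; BRET ratio = (acceptor/donor)×1,000, giving apparent intracellular affinity.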

T3 sequence (P19784 whole entry, the tested form may be a part): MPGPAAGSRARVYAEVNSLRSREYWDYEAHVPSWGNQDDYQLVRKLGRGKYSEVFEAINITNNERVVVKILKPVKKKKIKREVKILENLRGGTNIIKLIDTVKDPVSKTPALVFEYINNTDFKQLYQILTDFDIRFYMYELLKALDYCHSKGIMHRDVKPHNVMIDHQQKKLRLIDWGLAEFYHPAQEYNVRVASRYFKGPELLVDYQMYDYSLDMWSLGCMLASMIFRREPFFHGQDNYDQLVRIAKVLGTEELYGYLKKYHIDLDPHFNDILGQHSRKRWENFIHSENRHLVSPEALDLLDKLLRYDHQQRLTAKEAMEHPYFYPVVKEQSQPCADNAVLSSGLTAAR
T2 sequence (P49760 whole entry): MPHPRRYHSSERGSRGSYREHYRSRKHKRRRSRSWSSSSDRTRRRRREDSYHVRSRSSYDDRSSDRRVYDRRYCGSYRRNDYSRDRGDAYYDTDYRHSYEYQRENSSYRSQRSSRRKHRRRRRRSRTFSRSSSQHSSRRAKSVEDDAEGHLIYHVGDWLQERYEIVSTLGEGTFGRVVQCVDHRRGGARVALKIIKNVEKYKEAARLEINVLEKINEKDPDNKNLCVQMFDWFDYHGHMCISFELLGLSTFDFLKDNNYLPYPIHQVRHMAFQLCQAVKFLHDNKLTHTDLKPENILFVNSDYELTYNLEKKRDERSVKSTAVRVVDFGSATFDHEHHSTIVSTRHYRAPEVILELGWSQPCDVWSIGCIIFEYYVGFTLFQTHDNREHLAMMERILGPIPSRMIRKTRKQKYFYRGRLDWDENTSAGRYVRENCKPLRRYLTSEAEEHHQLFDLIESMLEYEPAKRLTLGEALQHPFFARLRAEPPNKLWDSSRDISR

Row | IC50 (CK2α) [nM] | IC50 (CLK2) [nM] | IC50 (intracellular CK2α) [nM] | SMILES
1 | 0.5 | 52.9 | 516 | Nc1cc(-c2cc(NCCCNC(=O)CCNCc3ccc(OC(F)(F)F)c(Cl)c3)c3cn[nH]c3c2)cnn1 [Example 188, N-(3-((6-(6-aminopyridazin-4-yl)-1H-indazol-4-yl)amino)propyl)-3-((3-chloro-4-(trifluoromethoxy)benzyl)amino)propanamide]
2 | 33.7 | 115 | 5920 | OCc1cc(F)cc(CNCCCCOC2CN(c3cc(-c4cnoc4)cc4[nH]ncc34)C2)c1 [Example 138, (3-fluoro-5-(((4-((1-(6-(isoxazol-4-yl)-1H-indazol-4-yl)azetidin-3-yl)oxy)butyl)amino)methyl)phenyl)methanol]
3 | 104 | 3470 | 176 | O=C(CCNCc1ccc(-c2ccccc2)c(Cl)c1)NCCCNc1cccc2[nH]ncc12 [Example 61, N-(3-((1H-indazol-4-yl)amino)propyl)-3-(((2-chloro-[1,1′-biphenyl]-4-yl)methyl)amino)propenamide]
4 | 7.88 | 350 | 1840 | FC(F)(F)Oc1ccc(CNCCc2ncc(CCNc3cc(-n4cnnc4)cc4[nH]ncc34)o2)cc1Cl [Example 64, N-(2-(2-(2-((3-chloro-4-(trifluoromethoxy)benzyl)amino)ethyl)oxazol-5-yl)ethyl)-6-(4H-1,2,4-triazol-4-yl)-1H-indazol-4-amine]
5 | 138 | > 50000 | > 50000 | N#CCc1cc(CNCCCCOCCOc2cc(-n3cnnc3)cc3[nH]nnc23)cc(OC(F)(F)F)c1 [Example 148, 2-(3-(((4-(2-((6-(4H-1,2,4-triazol-4-yl)-1H-benzo[d][1,2,3]triazol-4-yl)oxy)ethoxy)butyl)amino)methyl)-5-(trifluoromethoxy)phenyl)acetonitrile]
6 | 2.56 | 1090 | 2260 | O=C(CCNCc1ccc(OC(F)(F)F)c(Cl)c1)NCCCNc1cc(-n2cnnc2)cc2cn[nH]c12 [Example 83, N-(3-((5-(4H-1,2,4-triazol-4-yl)-1H-indazol-7-yl)amino)propyl)-3-((3-chloro-4-(trifluoromethoxy)benzyl)amino)propanamide]
7 | 3 | 1260 | 214 | FC(F)(F)c1ccc2[nH]c(CNCCCCOCCOc3cc(-n4cnnc4)cc4[nH]ncc34)cc2c1 [Example 117, 4-(2-((6-(4H-1,2,4-triazol-4-yl)-1H-indazol-4-yl)oxy)ethoxy)-N-((5-(trifluoromethyl)-1H-indol-2-yl)methyl)butan-1-amine]
8 | 9.06 | 1650 | 828 | O=C(CCNCc1ccc(OC(F)(F)F)c(Cl)c1)NCCCNc1cc(-c2nnco2)cc2[nH]ncc12 [Example 157, N-(3-((6-(1,3,4-oxadiazol-2-yl)-1H-indazol-4-yl)amino)propyl)-3-((3-chloro-4-(trifluoromethoxy)benzyl)amino)propanamide]
9 | 1.71 | 240 | 8.66 | C[C@@H](CCCOCCNc1cc(-c2cnns2)cc2[nH]ncc12)NCc1cc(CO)cc(OC(F)(F)F)c1 [Example 207, (S)-(3-(((5-(2-((6-(1,2,3-thiadiazol-5-yl)-1H-indazol-4-yl)amino)ethoxy)pentan-2-yl)amino)methyl)-5-(trifluoromethoxy)phenyl)methanol]
10 | 36.1 | 307 | 546 | OCc1cc(CNC2CC(COCCNc3cc(-c4cnns4)cc4[nH]ncc34)C2)cc(OC(F)(F)F)c1 (stereo not drawn) [Example 203, (3-(((3-((2-((6-(1,2,3-thiadiazol-5-yl)-1H-indazol-4-yl)amino)ethoxy)methyl)cyclobutyl)amino)methyl)-5-(trifluoromethoxy)phenyl)methanol]
11 | 10.9 | 498 | 2360 | FC(F)(F)c1ccc2[nH]c(CNCCCCOC3CN(c4cc(-c5cnoc5)cc5[nH]ncc45)C3)cc2c1 [Example 139, 4-((1-(6-(isoxazol-4-yl)-1H-indazol-4-yl)azetidin-3-yl)oxy)-N-((5-(trifluoromethyl)-1H-indol-2-yl)methyl)butan-1-amine]
12 | 68.3 | 2370 | 4980 | O=C(CCNCc1ccc(-c2ccccc2)c(Cl)c1)NCCCNc1cc(CO)cc2[nH]ncc12 [Example 63, 3-(((2-chloro-[1,1′-biphenyl]-4-yl)methyl)amino)-N-(3-((6-(hydroxymethyl)-1H-indazol-4-yl)amino)propyl)propanamide]

Row | SMILES | IC50 (CK2α) [nM] | IC50 (CLK2) [nM] | IC50 (intracellular CK2α) [nM]
13 | FC(F)(F)c1ccc2[nH]c(CNCCCCOCCNc3cc(-n4cnnc4)cc4[nH]nnc34)cc2c1 [Example 142, 6-(4H-1,2,4-triazol-4-yl)-N-(2-(4-(((5-(trifluoromethyl)-1H-indol-2-yl)methyl)amino)butoxy)ethyl)-1H-benzo[d][1,2,3]triazol-4-amine] | 5.43 | 4790 | 3860
